# Key:
# hMfsd2a = molecular target: T1, hMfsd2a (Homo sapiens, UniProt Q8NA29); assay: In vitro Mfsd2a transport, UPLC-MS-MS analysis; assay type: cell-based; conditions: transfected HEK293 cells, 50 μM test compound, 1 hour
# T1 construct: expressed in transfected cells; host or cells: HEK293
# T1 sequence (Q8NA29 1-530 isoform Q8NA29-2): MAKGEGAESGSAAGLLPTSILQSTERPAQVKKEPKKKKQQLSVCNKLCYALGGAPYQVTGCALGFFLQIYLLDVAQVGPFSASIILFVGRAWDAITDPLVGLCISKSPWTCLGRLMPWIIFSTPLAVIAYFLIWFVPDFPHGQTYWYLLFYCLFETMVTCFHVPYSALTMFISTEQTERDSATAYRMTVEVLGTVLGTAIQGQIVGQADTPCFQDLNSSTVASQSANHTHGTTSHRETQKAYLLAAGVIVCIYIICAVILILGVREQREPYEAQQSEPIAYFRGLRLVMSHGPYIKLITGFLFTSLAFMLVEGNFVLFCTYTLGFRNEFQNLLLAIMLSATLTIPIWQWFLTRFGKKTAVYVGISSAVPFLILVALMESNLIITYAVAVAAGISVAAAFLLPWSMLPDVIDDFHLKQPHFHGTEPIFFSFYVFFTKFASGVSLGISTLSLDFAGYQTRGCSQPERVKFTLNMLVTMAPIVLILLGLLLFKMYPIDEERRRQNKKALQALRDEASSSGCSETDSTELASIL
# Experimental: The assay was conducted in a low throughput 6-well format with HEK293 cells prepared and then transfected in duplicate wells with plasmids containing either the wildtype (WT) version of hMfsd2a, the D97A mutant version, or an empty vector as control. Uptake into the ceils was assessed by both thin-layer chromatography (TLC) and ultrahigh performance liquid chromatography hyphenated mass spectrometry.
# HEK293 cells were seeded at 6.25×10^5 per 6-well in 2 mL of DMEM with 10% FBS and 1% penicillin-streptomycin (P/S) media (Sigma) and incubated overnight at 37° C. in 5% CO2. Cells were checked for confluency the next morning. On a per well basis the following lipid mix was generated, 6 μL of Lipofectamine 2000 was added dropwise to 200 μL of OptiMEM, this was left to stand for 5 minutes at room temperature (RT). 1 μg of hMfsd2a WT, D97A or empty plasmid was prepared in 200 μL of OptiMEM as appropriate for each well; the Lipofectamine 2000 in OptiMEM solution was then added dropwise to a total volume of 400 μL (this can be scaled to support the number of wells/plates to be assayed). This transfection preparation was then incubated at RT for 20 minutes. DMEM with 10% FBS and no P/S media was warmed to 37° C., the HEK293 plate media was changed and the cells washed carefully with 1 mL of the warmed DMEM with 10% FBS no P/S media, 1.6 mL of the warmed DMEM with 10% FBS no P/S media was then added to each well. 400 μL of the transfection preparation was then added dropwise to each well as appropriate and the plate was gently swirled in a circular motion. The plate was then incubated overnight at 37° C. in 5% CO2.
# Compound Incubation and Preparation of Analysis Samples Compound stock solutions were prepared in a 12% BSA in PBS solution such that a 40 μL spike into 2 ml, of plain DMEM would yield a concentration of 50 μM of test compound (the compound treated media). Remaining compound stock solution in 12% BSA in PBS was frozen at −20° C. to allow for media stability testing. The HEK293 6-well plate was removed from the incubator and the wells gently rinsed with 1 mL of plain DMEM that had been prewarmed to 37° C. 2 mL of the compound treated media was then added to each well. A 100 μL sample of the compound treated media was sampled to represent a T=0 h sample; 5 μL of this sample (the remainder was reserved and frozen in case of re-analysis being required) was diluted with 45 μL of DMEM and crashed with 50 μL MeCN in a 96-well plate which was sealed and kept on ice. The HEK293 6-well plate was then incubated at 37° C. in 5% CO2 for 1 hour, the plate was then removed from the incubator and a 100 μL sample of media taken from each well to represent a T=1 h sample; 5 μL of this sample (the remainder was reserved and frozen in case of re-analysis being required) was diluted with 45 μL of DMEM and crashed with 50 μL MeCN into the 96-well plate which was re-sealed and stored at −20° C. The remaining media was then removed from the HEK293 6-well plate, the wells were gently rinsed twice with 1 mL of 0.5% BSA in DMEM, the media was then removed and the 6-well plate allowed to dry completely at RT. 1 ml of 3:2 Hexane:Isopropanol (HIP) was added to each well in a fume cupboard and the plate allowed to stand for 30 minutes at RT without shaking. The HIP solution was then transferred to 2 mL Eppendorf tubes, and the process was repeated with a second 1 mL aliquot of HIP and the two aliquots combined. The HIP samples were then dried down under a nitrogen stream.
# HIP samples prepared as described above were reconstituted in 100 μL of MeCN, vortex mixed and inverted multiple times to ensure all surfaces of the Eppendorf tube were rinsed with the MeCN and finally pulse centrifuged. […]
# [1] = In vitro brain homogenate stability, rat; assay type: in vitro ADME
# Experimental: Fresh rodents brains were snap frozen immediately after collection and the assay performed on the same day. Brains were pre-incubated at 37° C. before being spiked with test compound at 1 μM. Samples were collected across 6 time points (0, 10, 20, 30, 45 and 60 minutes) and crashed in cold acetonitrile containing an internal standard (Leucine Enkephalin) and kept on ice until all samples had been collected. The samples were then shaken and centrifuged. 100 μL of supernatant was transferred to a plate containing 50 μL of MilliQ water and mixed. These plates were analyzed by LC-MS/MS over the 6 time points, where the percentage of test compound remaining was calculated using the peak area of the initial timepoint (T=0 minutes) as 100%. The natural log of the percentage remaining was then calculated. The natural log of the percentage remaining versus time (minutes) was plotted on a graph and the gradient of this graph was used to calculate the elimination rate constant (K), The half-life (t1/2) of test compound was calculated using the natural log of 2 divided by the elimination rate constant. The percentage of Compound 2 formed is reported below in Tables 4-6. FIGS. 9A-9F show results of the brain homogenate stability conducted with representative compounds of the Examples.
substance,measurement,setting,value
"2-(5Z,8Z,11Z,14Z)-icosa-5,8,11,14-tetraenamidoethyl (trimethylammonio) ethylphosphate [Compound 3]",Transport via Mfsd2a: concentration in HIP samples from WT cells compared with D97A mutant Mfsd2a and/or empty vector cells,hMfsd2a,transported via Mfsd2a
same,Rat t1/2,"[1]; 37° C., test compound at 1 μM",56 min
same,Clearance in brain homogenate stability study (in words),"[1]; one hour incubation, increasing formation of Compound 2",demonstrated a level of clearance

# From US20220112225A1, “ANANDAMIDE COMPOUNDS” (priority 2019, published 2022)
